Laboratory results published in patent US7759345B2, “Antitumoral derivatives of ET-743” (priority 2001, dated 2010).
Read-outs that look alike come from different tables or passages of the source.

Experiments:
HT-29 = experiment: Inhibition of cell growth by counting cells, HT-29; format: cell-based, human; settings: three days of incubation, read-out: IC50 (molar) HT-29
Outline: (§1)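 Growth inhibition by direct cell counting: exponentially growing cells treated 3 days with compound at 37° C; IC50 derived from dose-response of net cells per well.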

A-549 = experiment: Inhibition of cell growth by counting cells, A-549; format: cell-based, human; settings: three days of incubation, read-out: IC50 (molar) A-549
Outline: as §1

MEL-28 = experiment: Inhibition of cell growth by counting cells, MEL-28; format: cell-based, human; settings: three days of incubation, read-out: IC50 (molar) MEL-28
Experimental: (§2) 1°.—Inhibition of Cell Growth by Counting Cells.
(§3) This form of the assay employs 24 well multidishes of 16 mm diameter (Bergeron, 1984; Schroeder, 1981). The tumor cell lines employed are: P-388 (ATCC CCL 46), suspension culture of a lymphoid neoplasm from a DBA/2 mouse; A-549 (ATCC CCL 185), monolayer culture of a human lung carcinoma; HT-29 (ATCC HTB-38), monolayer culture of a human colon carcinoma; MEL-28 (ATCC HTB-72), monolayer culture of a human melanoma and DU-145 (ATCC HTB-81), monolayer culture of a human prostate carcinoma.
(§4) Cells were maintained, in logarithmic phase of growth in Eagle's Minimum Essential Medium, with Earle's Balanced Salts, with non-essential amino acids, with 2.0 mM L-Glutamine, without sodium bicarbonate (EMEM/neaa), supplemented with 10% Fetal Calf Serum (FCS), 10^−2 M. sodium bicarbonate and 0.1 U/l penicillin G+0.1 g/l streptomycin sulfate. For the experiments, cells are harvested from subconfluent cultures using trypsin and resuspended in fresh medium before plating.
(§5) A-549, HT-29, MEL-28 and DU-145 cells were seeded into 16 mm diameter wells at 1×10^4 cells per well in 1 ml aliquots of EMEM 5% FCS containing different concentrations of the sample to be tested. A separate set of cultures without drug was seeded as control of growth, to ensure that cells remained in exponential phase of growth. All determinations are carrying out in duplicate. After three days of incubation at 37° C., 5% CO2 in a 98% humid atmosphere cells were stained with 0.1% crystal violet. An approximately IC50 was determined by comparing the growth in wells with drug to the growth in wells control.
(§6) For quantifying the activity, after the incubation time, cells are trypsinized and counted in a Coulter Counter ZM. All counts (net cells per well), represent the average of duplicate wells. % G, percent of growth relative to cultures without drug. The results of these assays are used to generate dose-response curves from which more precise IC50 values are determined (sample concentration which produces 50% cell growth inhibition).
(§7) Obtained results may predict the usefulness of a certain drug as a potential cancer treatment. For this technique, compounds which show IC50 values smaller than 1 μg/ml are selected to continue with further studies. IC50's data allow to predict that not only could a drug be cystostatic, but also it could have a potential in terms of tumor reduction.

P-388 = experiment: Inhibition of cell growth by counting cells, P-388; format: cell-based, mouse; settings: three days of incubation, read-out: IC50 (molar) P-388
Experimental: as §2, §3, §4
P-388 cells were seeded into 16 mm diameter wells at 1×10^4 cells per well in 1 ml aliquots of EMEM 5% FCS containing different concentrations of the sample to be tested. A separate set of cultures without drug was seeded as control of growth, to ensure that cells remained in exponential phase of growth. All determinations are carrying out in duplicate.
as §6, §7

DU-145 = experiment: Inhibition of cell growth by counting cells, DU-145; format: cell-based, human; settings: read-out: IC50 (molar) DU-145
Experimental: as §2, §3, §4, §5, §6, §7

[1] = Homo sapiens, DU-145, 72 h, three days of incubation

Measured: IC50

COc1cc2c(cc1OC(=O)OC(C)(C)C)CCN[C@]21CS[C@@H]2c3c(OC(C)=O)c(C)c4c(c3[C@H](COC1=O)N1C2[C@H]2c3c(cc(C)c(OC)c3OC(=O)OC(C)(C)C)C[C@@H]([C@@H]1C#N)N2C)OCO4 (stereo partly shown) [Compound 5]
0.515 nM: HT-29; Homo sapiens, HT-29, 72 h | A-549; Homo sapiens, A549, 72 h | MEL-28; Homo sapiens, SK-MEL-28, 72 h | P-388; Mus musculus, P388, 72 h | DU-145; [1]

CCCC(=O)Oc1cc2c(cc1OC)[C@@]1(CS[C@@H]3c4c(OC(C)=O)c(C)c5c(c4[C@H](COC1=O)N1C3[C@H]3c4c(cc(C)c(OC)c4O)C[C@@H]([C@@H]1C#N)N3C)OCO5)NCC2 (stereo partly shown) [Compound 7]
0.119 nM: A-549; Homo sapiens, A549, 72 h | MEL-28; Homo sapiens, SK-MEL-28, 72 h | P-388; Mus musculus, P388, 72 h
0.595 nM: HT-29; Homo sapiens, HT-29, 72 h | DU-145; [1]

COc1cc2c(cc1OC(=O)/C=C/c1ccccc1)CCN[C@]21CS[C@@H]2c3c(OC(C)=O)c(C)c4c(c3[C@H](COC1=O)N1C2[C@H]2c3c(cc(C)c(OC)c3O)C[C@@H]([C@@H]1C#N)N2C)OCO4 (stereo partly shown) [Compound 8]
0.111 nM: A-549; Homo sapiens, A549, 72 h | MEL-28; Homo sapiens, SK-MEL-28, 72 h | P-388; Mus musculus, P388, 72 h
0.556 nM: HT-29; Homo sapiens, HT-29, 72 h | DU-145; Homo sapiens, DU-145, 72 h

CCCC(=O)Oc1cc2c(cc1OC)[C@@]1(CS[C@@H]3c4c(OC(C)=O)c(C)c5c(c4[C@H](COC1=O)N1C3[C@H]3c4c(cc(C)c(OC)c4OC(=O)CCC)C[C@@H]([C@@H]1C#N)N3C)OCO5)NCC2 (stereo partly shown) [Compound 9]
0.11 nM: HT-29; Homo sapiens, HT-29, 72 h | A-549; Homo sapiens, A549, 72 h | MEL-28; Homo sapiens, SK-MEL-28, 72 h | P-388; Mus musculus, P388, 72 h | DU-145; [1]

COc1cc2c(cc1OC(=O)/C=C/c1ccccc1)CCN[C@]21CS[C@@H]2c3c(OC(C)=O)c(C)c4c(c3[C@H](COC1=O)N1C2[C@H]2c3c(cc(C)c(OC)c3OC(=O)/C=C/c3ccccc3)C[C@@H]([C@@H]1C#N)N2C)OCO4 (stereo partly shown) [Compound 10]
9.7 nM: HT-29; Homo sapiens, HT-29, 72 h | A-549; Homo sapiens, A549, 72 h | MEL-28; Homo sapiens, SK-MEL-28, 72 h | P-388; Mus musculus, P388, 72 h | DU-145; Homo sapiens, DU-145, 72 h

CCCCCCCC(=O)Oc1cc2c(cc1OC)[C@@]1(CS[C@@H]3c4c(OC(C)=O)c(C)c5c(c4[C@H](COC1=O)N1C3[C@H]3c4c(cc(C)c(OC)c4O)C[C@@H]([C@@H]1C#N)N3C)OCO5)NCC2 (stereo partly shown) [Compound 14]
1.11 nM: HT-29 | A-549 | MEL-28 | P-388 | DU-145; three days of incubation

CCCCCCCC(=O)Oc1cc2c(cc1OC)[C@@]1(CS[C@@H]3c4c(OC(C)=O)c(C)c5c(c4[C@H](COC1=O)N1C3[C@H]3c4c(cc(C)c(OC)c4OC(=O)CCCCCCC)C[C@@H]([C@@H]1C#N)N3C)OCO5)NCC2 (stereo partly shown) [Compound 15]
97.8 nM: HT-29; Homo sapiens, HT-29, 72 h | A-549; Homo sapiens, A549, 72 h | MEL-28; Homo sapiens, SK-MEL-28, 72 h | P-388; Mus musculus, P388, 72 h | DU-145; [1]

CCCCCCCCCCCCCCCC(=O)Oc1cc2c(cc1OC)[C@@]1(CS[C@@H]3c4c(OC(C)=O)c(C)c5c(c4[C@H](COC1=O)N1C3[C@H]3c4c(cc(C)c(OC)c4O)C[C@@H]([C@@H]1C#N)N3C)OCO5)NCC2 (stereo partly shown) [Compound 16]
9.91 nM: HT-29; Homo sapiens, HT-29, 72 h | A-549; Homo sapiens, A549, 72 h | MEL-28; Homo sapiens, SK-MEL-28, 72 h | P-388; Mus musculus, P388, 72 h | DU-145; [1]

CCCCCCCCCCCCCCCC(=O)Oc1cc2c(cc1OC)[C@@]1(CS[C@@H]3c4c(OC(C)=O)c(C)c5c(c4[C@H](COC1=O)N1C3[C@H]3c4c(cc(C)c(OC)c4OC(=O)CCCCCCCCCCCCCCC)C[C@@H]([C@@H]1C#N)N3C)OCO5)NCC2 (stereo partly shown) [Compound 17]
80.2 nM: HT-29; Homo sapiens, HT-29, 72 h | A-549; Homo sapiens, A549, 72 h | MEL-28; Homo sapiens, SK-MEL-28, 72 h | P-388; Mus musculus, P388, 72 h | DU-145; [1]

C=CCOC(=O)NC(CSCC1c2ccccc2-c2ccccc21)C(=O)Oc1cc2c(cc1OC)[C@@]1(CS[C@@H]3c4c(OC(C)=O)c(C)c5c(c4[C@H](COC1=O)N1C3[C@H]3c4c(cc(C)c(OC)c4O)C[C@@H]([C@@H]1C#N)N3C)OCO5)NCC2 (stereo partly shown) [Compound 18]
0.441 nM: HT-29; Homo sapiens, HT-29, 72 h | A-549; Homo sapiens, A549, 72 h | MEL-28; Homo sapiens, SK-MEL-28, 72 h | P-388; Mus musculus, P388, 72 h | DU-145; [1]

COc1cc2c(cc1OC(=O)CCCCC1SCC3NC(=O)NC31)CCNC21CSC2c3c(OC(C)=O)c(C)c4c(c3C(COC1=O)N1C(C#N)C3Cc5cc(C)c(OC)c(O)c5C(C21)N3C)OCO4 (stereo not shown) [Compound 19]
0.502 nM: HT-29 | A-549 | MEL-28 | P-388 | DU-145; three days of incubation

COc1cc2c(cc1OC(=O)CCCCC1SCC3NC(=O)NC31)CCNC21CSC2c3c(OC(C)=O)c(C)c4c(c3C(COC1=O)N1C(C#N)C3Cc5cc(C)c(OC)c(OC(=O)CCCCC6SCC7NC(=O)NC76)c5C(C21)N3C)OCO4 (stereo not shown) [Compound 20]
8.18 nM: HT-29 | A-549 | MEL-28 | P-388 | DU-145; three days of incubation

COc1cc2c(cc1OC(=O)OCc1ccccc1)CCN[C@]21CS[C@@H]2c3c(OC(C)=O)c(C)c4c(c3[C@H](COC1=O)N1C2[C@H]2c3c(cc(C)c(OC)c3O)C[C@@H]([C@@H]1C#N)N2C)OCO4 (stereo partly shown) [Compound 27]
0.111 nM: HT-29; Homo sapiens, HT-29, 72 h | A-549; Homo sapiens, A549, 72 h | MEL-28; Homo sapiens, SK-MEL-28, 72 h | P-388; Mus musculus, P388, 72 h | DU-145; [1]

COc1cc2c(cc1OC(=O)OCc1ccccc1)CCN[C@]21CS[C@@H]2c3c(OC(C)=O)c(C)c4c(c3[C@H](COC1=O)N1C2[C@H]2c3c(cc(C)c(OC)c3OC(=O)OCc3ccccc3)C[C@@H]([C@@H]1C#N)N2C)OCO4 (stereo partly shown) [Compound 28]
9.62 nM: HT-29; Homo sapiens, HT-29, 72 h | A-549; Homo sapiens, A549, 72 h | MEL-28; Homo sapiens, SK-MEL-28, 72 h | P-388; Mus musculus, P388, 72 h | DU-145; [1]

CCOc1cc2c(cc1OC)[C@@]1(CS[C@@H]3c4c(OC(C)=O)c(C)c5c(c4[C@H](COC1=O)N1C3[C@H]3c4c(cc(C)c(OC)c4OCC)C[C@@H]([C@@H]1C#N)N3C)OCO5)NCC2 (stereo partly shown) [Compound 38]
12.1 nM: HT-29; Homo sapiens, HT-29, 72 h | A-549; Homo sapiens, A549, 72 h | MEL-28; Homo sapiens, SK-MEL-28, 72 h | P-388; Mus musculus, P388, 72 h | DU-145; Homo sapiens, DU-145, 72 h

CCCOc1cc2c(cc1OC)[C@@]1(CS[C@@H]3c4c(OC(C)=O)c(C)c5c(c4[C@H](COC1=O)N1C3[C@H]3c4c(cc(C)c(OC)c4OCCC)C[C@@H]([C@@H]1C#N)N3C)OCO5)NCC2 (stereo partly shown) [Compound 40]
1170 nM: HT-29; Homo sapiens, HT-29, 72 h | A-549; Homo sapiens, A549, 72 h | MEL-28; Homo sapiens, SK-MEL-28, 72 h | P-388; Mus musculus, P388, 72 h | DU-145; Homo sapiens, DU-145, 72 h

C=CCOc1cc2c(cc1OC)[C@@]1(CS[C@@H]3c4c(OC(C)=O)c(C)c5c(c4[C@H](COC1=O)N1C3[C@H]3c4c(cc(C)c(OC)c4O)C[C@@H]([C@@H]1C#N)N3C)OCO5)NCC2 (stereo partly shown) [Compound 41]
1.23 nM: HT-29; Homo sapiens, HT-29, 72 h | A-549; Homo sapiens, A549, 72 h | MEL-28; Homo sapiens, SK-MEL-28, 72 h | P-388; Mus musculus, P388, 72 h | DU-145; Homo sapiens, DU-145, 72 h
